Test results published in patent US11439641B2, “Pyrimidine JAK inhibitors for the treatment of skin diseases” (THERAVANCE BIOPHARMA R&D IP, LLC, priority 2019, dated 2022).

What was measured:
[1] = Solubility Assay in Organic Excipients; settings: maximum upper limit 20,000 μM; for Solubility in MCT (mg/mL): medium chain triglycerides (MCT)
Protocol: Assay 6: Solubility Assay in Organic Excipients
The purpose of this assay was to quantify the solubility of test compounds in different organic excipients such as diisopropyl adipate, medium chain triglycerides (MCT), propylene glycol, and polyethylene glycol. The assay required 80 μL of 100 mM DMSO test compound solution per desired excipient in addition to 40 μL required to make a test standard.
The standard was created by diluting 40 μL of 100 mM DMSO compound stock solution into 160 μL of methanol and was shaken for five minutes to ensure solution uniformity. […] This 20,000 μM solution was run on an Agilent 1260 LC-MS system by injecting 0.2 μL in order to obtain the peak area. For the test solutions, 80 μL of 100 mM DMSO compound stock solution, per excipient, were dried down into a powder overnight. Once in powder form, 400 μL of the desired excipient was added to the powder and allowed to shake vigorously for four hours. The maximum theoretical concentration for this sample solution was 20,000 μM. After four hours of shaking, the samples were centrifuged for 10 minutes at 3,000 RPM before injecting 0.2 μL on the same Agilent 1260 LC-MS system to obtain the peak area.

[2] = Human Liver Microsome Assay; settings: human liver microsomes 0.1 mg/mL, 0.1 μM compound, 1 mM NADPH, 37° C.
Protocol: Assay 4: Human Liver Microsome Assay
The objective of this assay was to assess the metabolic stability of test compounds in an in vitro human liver sub-fraction. Human liver microsomes obtained from Bioreclamation-IVT (Baltimore, Md.) were thawed on ice and diluted into 0.1 M potassium phosphate buffer pH 7.4 to yield final incubation protein concentrations of 0.1 mg/mL. Test compounds (10 mM) were diluted into NADPH cofactor to yield final incubation concentrations of 0.1 μM test compound and 1 mM NADPH. Incubations were conducted at 37° C. temperature and test aliquots were taken at time points 0, 5, 8, 15, 30 and 45 minutes. Each aliquot was crashed into water with 3% formic acid and 1 μM internal standard. The resulting samples were injected onto an LC-MS/MS system for analysis.
For each incubation, the peak area of the analytes in each t0 aliquot was set to 100% and the peak areas from subsequent time point aliquots were converted to percentage of parent compound remaining relative to t0. The percentage of parent compound remaining was converted to natural log scale and plotted versus time in minutes. A linear regression analysis was performed for the initial decline of the parent disappearance profile and a formula for the best-fit line determined. The slope of the resultant line was normalized to protein concentration in mg/mL protein or number of cells/mL and CLint was calculated as follows for liver microsomes: CLint(μL·min^−1·mg^−1)=(Slope×1000)/[protein,mg/mL]
CLint values from 9-49 μl/min/mg represent moderate clearance (i.e. 30-70% of hepatic blood flow in human) and values >50 μl/min/mg represent high hepatic clearance (i.e. >70% of hepatic blood flow in human).

[3] = test system: IL-2 stimulated pSTAT5 in Tall-1 T cells; experiment: Inhibition of IL-2 Stimulated pSTAT5 in Tall-1 T Cells; type: cell-based; settings: Tall-1 human T cell line, IL-2 300 ng/mL, AlphaLisa
Summary of the method: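 Cells preincubated with compound 1 hour at 37° C, then stimulated with IL-2 (final 300 ng/mL) for 30 minutes. After lysis, pSTAT5 (Tyr694/699) read by AlphaLISA luminescence. IC50 from inhibition curves, reported as pIC50 (mean±SD).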

JAK1 = JAK1 (Homo sapiens (Human), UniProt P23458); experiment: Biochemical JAK and Tyk2 Kinase Assays (LanthaScreen), JAK1; settings: 25 μM ATP (Km); pIC50 converted to pKi by Cheng-Prusoff
JAK1, sequence (P23458 whole entry): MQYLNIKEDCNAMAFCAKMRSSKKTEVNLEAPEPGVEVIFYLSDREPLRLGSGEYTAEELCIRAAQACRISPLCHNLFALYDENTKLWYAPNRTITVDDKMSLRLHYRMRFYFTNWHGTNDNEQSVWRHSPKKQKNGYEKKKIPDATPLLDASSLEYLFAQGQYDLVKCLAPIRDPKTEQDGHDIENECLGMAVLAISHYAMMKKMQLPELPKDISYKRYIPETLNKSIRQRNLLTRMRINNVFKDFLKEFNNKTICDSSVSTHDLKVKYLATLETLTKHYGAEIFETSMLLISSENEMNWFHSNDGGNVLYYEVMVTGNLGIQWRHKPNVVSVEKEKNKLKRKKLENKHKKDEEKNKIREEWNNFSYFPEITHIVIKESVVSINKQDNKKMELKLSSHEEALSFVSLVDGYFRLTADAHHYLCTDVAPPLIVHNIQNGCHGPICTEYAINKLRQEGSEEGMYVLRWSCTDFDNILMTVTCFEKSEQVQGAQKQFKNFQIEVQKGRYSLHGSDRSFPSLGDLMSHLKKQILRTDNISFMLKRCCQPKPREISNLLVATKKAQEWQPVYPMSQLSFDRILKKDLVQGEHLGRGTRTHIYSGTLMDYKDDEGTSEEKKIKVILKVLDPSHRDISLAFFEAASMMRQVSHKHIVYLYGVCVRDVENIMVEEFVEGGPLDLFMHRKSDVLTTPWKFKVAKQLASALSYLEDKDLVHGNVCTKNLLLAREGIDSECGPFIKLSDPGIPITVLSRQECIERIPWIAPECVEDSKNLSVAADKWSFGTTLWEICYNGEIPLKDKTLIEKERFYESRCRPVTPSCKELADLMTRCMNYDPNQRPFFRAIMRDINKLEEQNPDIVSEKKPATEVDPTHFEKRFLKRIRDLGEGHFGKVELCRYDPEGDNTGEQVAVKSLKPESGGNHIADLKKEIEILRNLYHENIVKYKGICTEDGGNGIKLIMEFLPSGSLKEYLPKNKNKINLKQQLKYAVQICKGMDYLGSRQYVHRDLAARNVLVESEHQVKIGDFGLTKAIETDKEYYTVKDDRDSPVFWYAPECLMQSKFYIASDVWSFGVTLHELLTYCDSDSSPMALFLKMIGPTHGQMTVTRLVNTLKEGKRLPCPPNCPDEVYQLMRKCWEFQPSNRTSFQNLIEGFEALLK

Aqueous Solubility Assay = settings: PBS buffer pH 7.4; maximum upper limit 1,000 μM
JAK3 = JAK3 (Homo sapiens (Human), UniProt P52333); experiment: Biochemical JAK and Tyk2 Kinase Assays (LanthaScreen), JAK3; settings: 1.6 μM ATP (Km); pIC50 converted to pKi by Cheng-Prusoff
JAK3, sequence (P52333 whole entry): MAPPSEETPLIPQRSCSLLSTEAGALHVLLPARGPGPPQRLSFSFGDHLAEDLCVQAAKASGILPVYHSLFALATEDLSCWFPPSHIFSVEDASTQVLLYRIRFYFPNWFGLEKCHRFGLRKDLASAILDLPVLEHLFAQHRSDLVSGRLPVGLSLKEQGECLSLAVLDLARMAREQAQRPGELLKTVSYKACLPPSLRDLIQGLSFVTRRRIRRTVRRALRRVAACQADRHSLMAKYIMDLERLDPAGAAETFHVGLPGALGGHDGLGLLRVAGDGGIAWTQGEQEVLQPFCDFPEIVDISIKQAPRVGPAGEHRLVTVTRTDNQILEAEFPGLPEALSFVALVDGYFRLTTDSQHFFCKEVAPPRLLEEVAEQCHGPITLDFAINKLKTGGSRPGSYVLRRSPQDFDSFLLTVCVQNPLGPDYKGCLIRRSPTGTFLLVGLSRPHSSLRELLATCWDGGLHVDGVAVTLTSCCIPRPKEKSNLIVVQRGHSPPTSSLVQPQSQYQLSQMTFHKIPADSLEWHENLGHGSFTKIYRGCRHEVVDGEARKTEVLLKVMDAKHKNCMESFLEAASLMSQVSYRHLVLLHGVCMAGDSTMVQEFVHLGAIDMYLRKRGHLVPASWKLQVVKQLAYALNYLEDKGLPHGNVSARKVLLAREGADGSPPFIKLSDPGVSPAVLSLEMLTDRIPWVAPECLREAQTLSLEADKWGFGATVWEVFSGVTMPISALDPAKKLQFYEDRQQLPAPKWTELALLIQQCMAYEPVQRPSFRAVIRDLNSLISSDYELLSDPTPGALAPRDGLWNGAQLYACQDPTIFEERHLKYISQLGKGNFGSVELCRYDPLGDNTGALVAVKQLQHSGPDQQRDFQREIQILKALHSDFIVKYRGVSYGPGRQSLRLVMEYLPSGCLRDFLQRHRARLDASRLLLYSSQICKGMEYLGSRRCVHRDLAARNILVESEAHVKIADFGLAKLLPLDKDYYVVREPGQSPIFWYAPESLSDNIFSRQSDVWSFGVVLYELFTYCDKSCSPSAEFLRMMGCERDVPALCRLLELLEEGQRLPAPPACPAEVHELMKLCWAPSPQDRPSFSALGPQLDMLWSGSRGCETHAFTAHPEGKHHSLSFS

Caco-2 cell monolayer = experiment: Caco-2 Permeation Assay; type: in vitro ADME; settings: Papp, 5 μM compound; for Cacoverap Kp 10^−6 cm/sec: A→B in the presence of 25 μM verapamil (P-gp inhibitor); for Caco Kp 10^−6 cm/sec: apical to basal (A→B)
Summary of the method: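 Compound at 5 μM, in duplicate, crosses Caco-2 monolayers apical to basal over 120 min at 37 °C. This is run with and without 25 μM verapamil to test for P-gp efflux. Samples are quantified by LC-MS/MS, and Papp in cm/sec is calculated as dQ/(dt × area × concentration).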

Tyk2 = Tyk2 (Homo sapiens (Human), UniProt P29597); experiment: Biochemical JAK and Tyk2 Kinase Assays (LanthaScreen), Tyk2; settings: 10 μM ATP (Km); pIC50 converted to pKi by Cheng-Prusoff
Tyk2, sequence (P29597 whole entry): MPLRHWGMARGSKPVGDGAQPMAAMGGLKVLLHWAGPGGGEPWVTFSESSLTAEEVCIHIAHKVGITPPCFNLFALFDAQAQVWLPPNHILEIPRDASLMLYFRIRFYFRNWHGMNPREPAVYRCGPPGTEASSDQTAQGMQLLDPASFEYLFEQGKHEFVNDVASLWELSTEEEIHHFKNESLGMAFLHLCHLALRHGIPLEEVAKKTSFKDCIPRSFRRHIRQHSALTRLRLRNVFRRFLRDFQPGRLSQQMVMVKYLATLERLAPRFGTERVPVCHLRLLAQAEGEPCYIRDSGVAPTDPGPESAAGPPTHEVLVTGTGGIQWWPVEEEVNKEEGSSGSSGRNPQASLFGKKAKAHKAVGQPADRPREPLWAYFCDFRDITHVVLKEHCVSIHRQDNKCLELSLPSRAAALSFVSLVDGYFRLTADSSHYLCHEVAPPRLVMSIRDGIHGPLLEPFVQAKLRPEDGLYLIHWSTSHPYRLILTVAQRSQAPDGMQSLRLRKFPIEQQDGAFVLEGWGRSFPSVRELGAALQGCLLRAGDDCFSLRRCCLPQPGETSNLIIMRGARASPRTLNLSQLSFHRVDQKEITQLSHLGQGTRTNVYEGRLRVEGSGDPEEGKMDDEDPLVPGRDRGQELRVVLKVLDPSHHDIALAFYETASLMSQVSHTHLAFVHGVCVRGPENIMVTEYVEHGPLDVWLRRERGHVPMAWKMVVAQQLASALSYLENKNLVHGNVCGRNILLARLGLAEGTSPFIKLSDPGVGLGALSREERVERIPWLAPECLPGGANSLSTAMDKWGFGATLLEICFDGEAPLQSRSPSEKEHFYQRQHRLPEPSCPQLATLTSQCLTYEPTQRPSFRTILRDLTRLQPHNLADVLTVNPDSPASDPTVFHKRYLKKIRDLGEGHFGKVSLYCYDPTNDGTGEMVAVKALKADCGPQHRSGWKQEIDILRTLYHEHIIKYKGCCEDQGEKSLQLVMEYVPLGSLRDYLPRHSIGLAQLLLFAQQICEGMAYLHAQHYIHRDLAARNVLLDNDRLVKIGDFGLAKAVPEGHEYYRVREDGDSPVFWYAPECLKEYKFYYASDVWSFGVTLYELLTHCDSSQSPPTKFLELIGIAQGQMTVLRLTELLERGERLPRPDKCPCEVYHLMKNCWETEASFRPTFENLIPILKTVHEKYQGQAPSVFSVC
Protocol: (§1) Assay 1: Biochemical JAK and Tyk2 Kinase Assays
(§2) A panel of four LanthaScreen JAK biochemical assays (JAK1, 2, 3 and Tyk2) were carried in a common kinase reaction buffer (50 mM HEPES, pH 7.5, 0.01% Brij-35, 10 mM MgCl2, and 1 mM EGTA). Recombinant GST-tagged JAK enzymes and a GFP-tagged STAT1 peptide substrate were obtained from Life Technologies.
(§3) Serially or discretely diluted compounds were pre-incubated with each of the four JAK enzymes and the substrate in white 384-well microplates (Corning) at ambient temperature for 1 h. ATP was subsequently added to initiate the kinase reactions in 10 μL total volume, with 1% DMSO. The final enzyme concentrations for JAK1, 2, 3 and Tyk2 are 4.2 nM, 0.1 nM, 1 nM, and 0.25 nM respectively; the corresponding Km ATP concentrations used are 25 μM, 3 μM, 1.6 μM, and 10 μM; while the substrate concentration is 200 nM for all four assays. Kinase reactions were allowed to proceed for 1 hour at ambient temperature before a 10 μL preparation of EDTA (10 mM final concentration) and Tb-anti-pSTAT1 (pTyr701) antibody (Life Technologies, 2 nM final concentration) in TR-FRET dilution buffer (Life Technologies) was added. The plates were allowed to incubate at ambient temperature for 1 h before being read on the EnVision reader (Perkin Elmer). Emission ratio signals (520 nm/495 nm) were recorded and utilized to calculate the percent inhibition values based on DMSO and background controls.
(§4) For dose-response analysis, percent inhibition data were plotted vs. compound concentrations, and IC50 values were determined from a 4-parameter robust fit model with the Prism software (GraphPad Software). Results were expressed as pIC50 (negative logarithm of IC50) and subsequently converted to pKi (negative logarithm of dissociation constant, Ki) using the Cheng-Prusoff equation.

JAK2 = JAK2 (Homo sapiens (Human), UniProt O60674); experiment: Biochemical JAK and Tyk2 Kinase Assays (LanthaScreen), JAK2; settings: 3 μM ATP (Km); pIC50 converted to pKi by Cheng-Prusoff
JAK2, sequence (O60674 whole entry): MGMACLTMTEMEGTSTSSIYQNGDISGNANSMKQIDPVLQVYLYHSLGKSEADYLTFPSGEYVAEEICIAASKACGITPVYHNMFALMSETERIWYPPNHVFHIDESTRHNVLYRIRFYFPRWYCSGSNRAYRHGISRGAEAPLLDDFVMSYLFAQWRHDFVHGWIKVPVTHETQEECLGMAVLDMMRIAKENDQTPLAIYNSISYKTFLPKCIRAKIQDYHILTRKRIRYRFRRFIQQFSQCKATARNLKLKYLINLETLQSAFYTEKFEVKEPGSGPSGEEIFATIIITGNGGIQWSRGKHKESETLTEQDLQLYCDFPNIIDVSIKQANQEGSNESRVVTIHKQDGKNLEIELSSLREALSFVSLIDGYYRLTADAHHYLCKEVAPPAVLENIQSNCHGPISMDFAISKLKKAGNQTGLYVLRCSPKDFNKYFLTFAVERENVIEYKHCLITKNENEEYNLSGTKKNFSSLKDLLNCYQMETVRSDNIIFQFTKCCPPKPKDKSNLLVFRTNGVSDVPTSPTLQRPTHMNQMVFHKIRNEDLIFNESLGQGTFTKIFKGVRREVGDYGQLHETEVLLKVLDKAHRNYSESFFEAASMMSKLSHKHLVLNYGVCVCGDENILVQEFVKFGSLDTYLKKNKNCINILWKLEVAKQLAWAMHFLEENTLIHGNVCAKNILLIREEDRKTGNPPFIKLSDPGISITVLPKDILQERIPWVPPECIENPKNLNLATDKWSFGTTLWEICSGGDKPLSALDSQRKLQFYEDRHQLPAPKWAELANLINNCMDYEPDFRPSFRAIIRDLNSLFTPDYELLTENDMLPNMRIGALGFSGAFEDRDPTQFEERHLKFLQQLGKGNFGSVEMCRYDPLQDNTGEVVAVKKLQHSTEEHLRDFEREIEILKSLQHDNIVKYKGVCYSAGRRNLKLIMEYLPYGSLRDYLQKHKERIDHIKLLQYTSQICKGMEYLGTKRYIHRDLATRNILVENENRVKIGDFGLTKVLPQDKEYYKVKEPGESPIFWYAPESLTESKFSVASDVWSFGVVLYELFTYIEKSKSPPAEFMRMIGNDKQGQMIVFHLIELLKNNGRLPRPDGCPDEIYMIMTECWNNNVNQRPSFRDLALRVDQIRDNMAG
Protocol: as §1, §2, §3, §4

| SMILES | Solubility in PEG400 (mg/mL) [1] | Solubility in Diisopropyl adipate (mg/mL) [1] | Solubility in MCT (mg/mL) [1] | Solubility in Propylene glycol (mg/mL) [1] | HLM Clin μL/min/mg [2] | Tall-1 IL2 pSTAT5 (pIC50) [3] | JAK 1 (pKi) (JAK1) | Solubility at PH 7.4 (μmol) (Aqueous Solubility Assay) | JAK 3 (pKi) (JAK3) | Cacoverap Kp 10^−6 cm/sec (Caco-2 cell monolayer) | Caco Kp 10^−6 cm/sec (Caco-2 cell monolayer) | Tyk 2 (pKi) (Tyk2) | JAK 2 (pKi) (JAK2) |
| --- | --- | --- | --- | --- | --- | --- | --- | --- | --- | --- | --- | --- | --- |
| CCS(=O)(=O)N1[C@@H]2CCC[C@H]1C[C@H](N(C)c1nc(Nc3cc(C)[nH]n3)cc(C3CCOC3)n1)C2 (stereo partly drawn) [Compound 5, N^2-((1R,3s,5S)-9-(ethylsulfonyl)-9-azabicyclo[3.3.1]nonan-3-yl)-N2-methyl-N4-(5-methyl-1H-pyrazol-3-yl)-6-(tetrahydrofuran-3-yl)pyrimidine-2,4-diamine] | A (A represents a value above 10) | B (B represents a value between 5 and 10) | C (C represents a value below 5) | A (A represents a value above 10) | A (A represents a Clint value between 1250 and 3000) | A (A represents a pIC50 value ≥8.0) | A (A represents a pKi value ≥10 (Ki≤0.1 nM)) | E (E represents a value below 10) | B (B represents a pKi value between 9 and 10 (Ki between 1 nM and 0.1 nM)) | A (A represents a value above 35×10^−6 cm/sec) | A (A represents a value above 30×10^−6 cm/sec) |  |  |
| CCS(=O)(=O)N1[C@@H]2CCC[C@H]1C[C@H](N(C)c1nc(Nc3cc(C)[nH]n3)cc([C@@H]3CCCO3)n1)C2 [Compound 10] |  |  |  |  | A (A represents a Clint value between 1250 and 3000) | A (A represents a pIC50 value ≥8.0) | A (A represents a pKi value ≥10 (Ki≤0.1 nM)) | C (C represents a value between 50 and 250) | B (B represents a pKi value between 9 and 10 (Ki between 1 nM and 0.1 nM)) | A (A represents a value above 35×10^−6 cm/sec) | A (A represents a value above 30×10^−6 cm/sec) | A (A represents a pKi value ≥10 (Ki≤0.1 nM)) | A (A represents a pKi value ≥10 (Ki≤0.1 nM)) |
| CCS(=O)(=O)N1[C@@H]2CCC[C@H]1C[C@H](N(C)c1nc(Nc3cc(C)[nH]n3)cc([C@H]3CCCO3)n1)C2 [Compound 9] |  |  |  |  | A (A represents a Clint value between 1250 and 3000) | A (A represents a pIC50 value ≥8.0) | A (A represents a pKi value ≥10 (Ki≤0.1 nM)) | C (C represents a value between 50 and 250) | B (B represents a pKi value between 9 and 10 (Ki between 1 nM and 0.1 nM)) | A (A represents a value above 35×10^−6 cm/sec) | A (A represents a value above 30×10^−6 cm/sec) | A (A represents a pKi value ≥10 (Ki≤0.1 nM)) | A (A represents a pKi value ≥10 (Ki≤0.1 nM)) |
| COC(=O)N1[C@@H]2CCC[C@H]1C[C@H](N(C)c1nc(Nc3cc(C)[nH]n3)cc(C3CCCO3)n1)C2 (stereo partly drawn) [Compound 11, methyl (1R,3s,5S)-3-(methyl(4-((5-methyl-1H-pyrazol-3-yl)amino)-6-(tetrahydrofuran-2-yl)pyrimidin-2-yl)amino)-9-azabicyclo[3.3.1]nonane-9-carboxylate] | A (A represents a value above 10) | A (A represents a value above 10) | B (B represents a value between 5 and 10) | A (A represents a value above 10) |  | A (A represents a pIC50 value ≥8.0) | A (A represents a pKi value ≥10 (Ki≤0.1 nM)) | C (C represents a value between 50 and 250) | C (C represents a pKi value between 8 and 9 (Ki between 10 nM and 1 nM)) | B (B represents a value between 20×10^−6 and 35×10^−6 cm/sec) | B (B represents a value between 15×10^−6 and 30×10^−6 cm/sec) | B (B represents a pKi value between 9 and 10 (Ki between 1 nM and 0.1 nM)) | B (B represents a pKi value between 9 and 10 (Ki between 1 nM and 0.1 nM)) |
